Earlier results as cited in patent US10653683B2, “Tiotropium inhalation solution for nebulization” (GLENMARK SPECIALTY S.A., priority 2016, dated 2020).

Assays:
[1] = relative to histamine

Solubility in methanol (methanol) | Solubility in water (water) | Compound | Bronchoconstrictor properties, times less potent than histamine [1]
soluble | sparingly soluble | C[N+]1(C)C2CC(OC(=O)C(O)(c3cccs3)c3cccs3)CC1C1OC12 (stereo not drawn) [Tiotropium bromide monohydrate, (1α, 2ß, 4ß, 5α, 7ß)-7-[(hydroxydi-2-thienylacetyl)oxy]-9,9-dimethyl-3-oxa-9-azoniatricyclo [3.3.1.02, 4] nonane bromide monohydrate] | –
– | – | benzalkonium chloride | 7.4 times
